Literature values as cited in US6423677B1, “Cleaner/degreaser concentrate compositions” (Buckeye International, Inc., priority 1995, dated 2002).

Conditions: in water, ambient temperature

aqueous ambient temperature solubility | SMILES
2.3 wt. % | OCCOc1ccccc1 [2-phenoxyethanol]
0.25 wt. % | CCCCCOC(C)=O [n-amyl acetate]
1.1 wt. % | CC(O)COc1ccccc1 (centres unmarked) [1-phenoxy-2-propanol]
2.7 wt. % | CCCCCO [n-amyl alcohol]
2.0 wt. % | CC(=O)CC(C)C [methylisobutyl ketone]
4.4 wt. % | OCc1ccccc1 [benzyl alcohol]
1.0 wt. % | c1ccc(N2CCOCC2)cc1 [N-phenylmorpholine]
0.5 wt. % | CC(=O)c1ccccc1 [acetophenone]
0.43 wt. % | CCOC(=O)CCCCC(=O)OCC [diethyl adipate]
1.6 wt. % | OCCc1ccccc1 [β-phenylethanol]
0.88 wt. % | CCOC(=O)CCCC(=O)OCC [diethyl glutarate]
2.08 wt. % | CCOC(=O)CC(=O)OCC [diethyl malonate]

SMILES | aqueous ambient temperature solubility
CC[N+](=O)[O-] [nitroethane] | 4.5 wt. %
O=C1CCCCC1 [cyclohexanone] | 2.3 wt. %
CC1=CC(=O)CC(C)(C)C1 [isophorone] | 1.2 wt. %
CCCCOC(C)=O [n-butyl acetate] | 0.7 wt. %
CCN(CC)c1ccccc1 [N,N-diethylaniline] | 1.4 wt. %
O=Cc1ccccc1 [benzaldehyde] | 0.3 wt. %

Same assay, conditions: in water; solvents not useful in the invention

aqueous solubility | SMILES
0.05 wt. % | CC(C)CC(=O)CC(C)C [2,6-dimethyl-4-heptanone]
0.095 wt. % | CCCCC(CC)COCCO (centres unmarked) [2-(2-ethylhexoxy)-ethanol]
19.6 wt. % | CC1COC(=O)O1 (centres unmarked) [propylene carbonate]
infinite | CN1CCCC1=O [N-methyl pyrrolidone]
16.5 wt. % | COCC(C)OC(C)=O (centres unmarked) [propylene glycol monomethyl ether acetate]
